{"source": "patent US9278086B2", "about": "“Combination therapy and uses thereof for treatment and prevention of parasitic infection and disease” (The Royal Institution for the Advancement of …, priority 2010, dated 2016)", "assay_type_in_all_cases": "in vivo", "key": {"Plasmodium chabaudi [1]": {"test_system": "Plasmodium chabaudi", "experiment": "P. chabaudi infection (10^5 pRBC i.v.) in A/J mice, continuous daily cysteamine treatment, blood parasitemia", "protocol": "A/J and C57BL/6 (B6) mice were purchased from the Jackson Laboratories (Bar Harbor, Me.) and were housed at McGill University according to the guidelines of the Canadian Council on Animal Care. An LDH virus-free isolate of P. chabaudi AS was maintained by weekly passage in A/J mice. […] Following infection, the percentage of pRBC was determined daily on thin blood smears stained with Dif-Quik™ (Dade Behring, Newark, Del.), as described (Fortin A, et al. (2001) Proc Natl Acad Sci USA 98: 10793-10798).\nCysteamine hydrochloride (Sigma, Burlington ON) was prepared in PBS. […]\nTo gain more insight into the anti-malarial effect of cysteamine (Cys) in vivo, the pharmacokinetic characteristics (plasma level) of Cys administered through the sub-cutaneous (s.c.) and intra-peritoneal (i.p) routes was compared. […] Parasitemia was monitored on thin blood smears at days 5, 6 and 7 following infection (FIG. 1B). […]\nIt was next determined whether Cys at equivalent dosing to that used in the clinical treatment of nephropathic cystinosis in humans has an effect on the course and severity of P. chabaudi infection in mice. […] The efficacy of different regimens of 50 mg/kg Cys s.c. (number of injections, interval between injections) on replication of P. chabaudi in vivo was evaluated. […]"}, "Plasmodium chabaudi [2]": {"test_system": "Plasmodium chabaudi", "experiment": "Progression, resolution and survival of lethal P. chabaudi infection (10^6 pRBC i.v.) in A/J mice", "details": "Cys alone 60 mg/kg, days 0-3", "protocol": "(§1) A/J and C57BL/6 (B6) mice were purchased from the Jackson Laboratories (Bar Harbor, Me.) and were housed at McGill University according to the guidelines of the Canadian Council on Animal Care. An LDH virus-free isolate of P. chabaudi AS was maintained by weekly passage in A/J mice. Mice were infected intravenously into the tail vein (i.v.) with 10^6 or 10^7 pRBC suspended in pyrogen-free saline. Following infection, the percentage of pRBC was determined daily on thin blood smears stained with Dif-Quik™ (Dade Behring, Newark, Del.), as described (Fortin A, et al. (2001) Proc Natl Acad Sci USA 98: 10793-10798).\n(§2) Cysteamine hydrochloride (Sigma, Burlington ON) was prepared in PBS. Chloroquine hydrochloride, artesunate and dihydroartemisinin were provided by Dafra Pharmaceuticals; chloroquine was prepared in PBS, artesunate and DHA were prepared in 5% sodium bicarbonate and diluted in water to appropriate concentrations. All solutions were prepared fresh daily, filter sterilized and injections were performed intra-peritoneally (i.p) or subcutaneously (s.c.) for 4 days or according to treatment regimen. Mice were weighed prior to treatment to determine appropriate doses and injection volumes ranged from 100-400 μL per mouse. In the case of animals treated with two drugs, artemisinin derivatives were administered first (due to the short half life of cysteamine), followed by cysteamine 5-10 minutes later on alternate sides. Untreated control animals were injected with PBS alone.\nIt was investigated if low dose Cys could potentiate standard doses of ART that show therapeutic activity in vivo and concurrently determined possible long-term effects on patent parasitemia, resolution of infection and survival in a lethal infection model. In this protocol, mice were infected with 10^6 pRBC P. chabaudi (i.v.) and treated with Cys (60 mg/kg) and/or ART (0.5, 1, 2, 5 and 10 mg/kg) for 4 days (days 0-3), while blood parasitemia and survival were followed for 22 days. Control animals treated with either PBS or Cys alone (60 mg/kg) developed high parasite burdens, which peaked at day 6, and all mice succumbed to the infection by day 7 (FIGS. 5A and 5C). […] Likewise, although all mice treated with 0.5 mg/kg ART succumbed to the infection early (day 8), mice additionally receiving Cys survived until day 9; moreover, addition of Cys to 1.0 mg/kg ART completely rescued animals from lethality of infection, with 100% survival in this group (FIGS. 5B, 5C)."}, "Plasmodium chabaudi [3]": {"test_system": "Plasmodium chabaudi", "experiment": "Progression of P. chabaudi infection (10^6 pRBC i.v.) in pantetheinase-sufficient B6 mice", "details": "Cys 60 mg/kg added to Art", "protocol": "as §1, §2\nTo investigate whether the effects on parasite burden over the course of infection would also be observed with a pantetheinase-sufficient mouse strain, a similar experiment was performed using female B6 mice. Groups of mice were infected with 10^6 P. chabaudi pRBC i.v. and treated with PBS, 1 mg/kg or 30 mg/kg of Art, or 1 mg/kg or 30 mg/kg of Art plus 60 mg/kg of Cys for 4 days. […] As in A/J mice, the effect of Cys addition to 1 mg/kg of Art has a clear effect on early parasite replication at day 6 (FIG. 6B). […] B6 mice were able to completely clear parasite burdens and survive the infection, even in the control PBS-treated group."}}}
{"smiles": "NCCS", "note": "[Cysteamine]", "values": [{"measurement": "reduction in parasitemia relative to saline injected controls", "setting": "Plasmodium chabaudi [1]; 120 mg/kg Cys daily, either s.c. or i.p., day 5 and 6, p<0.01", "result": 50, "unit": "%"}, {"measurement": "reduction of blood parasitemia", "setting": "Plasmodium chabaudi [1]; Cys s.c. daily, all regimens: 1×150 mg/kg, 3×50 or 4×50 mg/kg at 2 hr, 3×50 mg/kg at 1 hr intervals (strongest), days 5, 6, 7", "result": "40-67%"}, {"measurement": "day at which parasite burdens peaked", "setting": "Plasmodium chabaudi [2]", "result": 6, "unit": "days"}, {"measurement": "day by which all mice succumbed to the infection", "setting": "Plasmodium chabaudi [2]", "result": "≤ 7", "unit": "days"}, {"measurement": "recrudescent parasitemia around day 14", "setting": "Plasmodium chabaudi [3]", "result": "eliminated the appearance of recrudescent parasitemia"}]}
